Source: publication PMC11951083, “Highly Specific Miniaturized Fluorescent Monoacylglycerol Lipase Probes Enable Translational Research” (Journal of the American Chemical Society, 2025)
Values after ≈ are worked out from the molar mass of the structure shown.

Columns and labels:
rMAGL = target: T1, rMAGL (Rattus norvegicus, UniProt Q8R431); assay: Native MS (RapidFire) 2-AG substrate assay, purified rat MAGL; assay type: biochemical; conditions: for IC50: purified rat MAGL, native MS substrate assay, read-out: IC50 rMAGL
T1 sequence (Q8R431 1-303): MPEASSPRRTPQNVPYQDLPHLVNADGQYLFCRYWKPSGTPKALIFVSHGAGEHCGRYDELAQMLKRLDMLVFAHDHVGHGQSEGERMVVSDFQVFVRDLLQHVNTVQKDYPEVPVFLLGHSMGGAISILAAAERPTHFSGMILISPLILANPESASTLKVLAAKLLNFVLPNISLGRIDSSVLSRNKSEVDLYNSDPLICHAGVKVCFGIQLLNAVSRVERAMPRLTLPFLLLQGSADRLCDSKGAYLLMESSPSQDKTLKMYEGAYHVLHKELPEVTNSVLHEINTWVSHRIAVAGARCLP
Procedure: In vitro MAGL Inhibition Assay
Compounds were profiled for MAGL inhibitory activity by determining the enzymatic activity by following the hydrolysis of the natural substrate 2-arachidonoylglycerol (2-AG), resulting in arachidonic acid, which can be followed by mass spectrometry. The 2-AG assay was carried out in 384 well assay plates (PP, Greiner Cat# 784201) in a total volume of 20 µL. Compound dilutions were made in 100% DMSO (VWR Chemicals 23500.297) in a polypropylene plate in 3-fold dilution steps to give a final concentration range in the assay from 12.5 µM to 0.8 pM. 0.25µL compound dilutions (100% DMSO) were added to 9 µL MAGL in assay buffer (50 mM TRIS (GIBCO, 15567-027), 1 mM EDTA (Fluka, 03690-100 mL), 0.01% (v/v) Tween. After shaking, the plate was incubated for 15 min at RT. To start the reaction, 10 µL 2-arachidonoylglycerol in assay buffer was added. The final concentrations in the assay were 50 pM MAGL and 8 µM 2-arachidonoylglyerol. After shaking and 30 min incubation at RT, the reaction was quenched by the addition of 40µL of ACN containing 4µM of d8-arachidonic acid. The amount of arachidonic acid was traced by an online SPE system (Agilent Rapidfire) coupled to a triple quadrupole mass spectrometer (Agilent 6460). A C18 SPE cartridge (G9205A) was used in an ACN/water liquid setup. The mass spectrometer was operated in negative electrospray mode following the mass transitions 303.1 → 259.1 for arachidonic acid and 311.1 → 267.0 for d8-arachidonic acid. The activity of the compounds was calculated based on the ratio of intensities [arachidonic acid / d8-arachidonic acid]. The lowest IC50 value that can be determined with high accuracy is approximately 0.025 nM.

CDK2 (h) (cycA) = CDK2 (h) (cycA) (Homo sapiens, UniProt P24941); assay: CDK2 (h) (cycA); conditions: read-out: Inhibition CDK2 (h) (cycA)
[1] = test system: serine hydrolases in the mouse brain proteome (MBP); assay: Multiplex ABPP in mouse brain proteome; assay type: biochemical; conditions: for labeling selectivity in ABPP (covalent probes): mouse brain homogenates, broad range of concentrations; for selectivity in competitive ABPP (reversible probes): mouse brain proteome, membrane and cytosolic fraction, 1 μM
Procedure: K = [L][P] = 0.5 [L]T (FP50 − 0.5 [L]T) = FP − 0.5 [L] […]
Mouse brain sample preparation
Mouse tissues were isolated according to guidelines approved by the ethical committee of Leiden University. Male mouse brain (27 weeks old) was homogenized with glass beads (2x 1 min, bullet blender, speed 8) using cold lysis buffer (20 mM Hepes pH 7.2, 1 mM MgCl 2, 2 U/mL Benzonase). The membrane and cytosol were separated by centrifugation. The membrane fraction was resuspended in Hepes/DTT buffer. Protein concentration was determined with Bradford Assay, and samples were diluted to a final concentration of 2.0 mg/mL. Samples were snap -frozen in liquid nitrogen and stored at -80 °C until further use.
Lysate (19 µL, 2 µg/µL) was thawed on ice. For comparative ABPP (irreversible probes), 1 µL of probe (20x stock in DMSO) or pure DMSO was added to the sample, vortexed briefly, and in cubated for 30 minutes at RT. For competitive ABPP (reversible probes), 0.5 µL of the reversible probe (40x stock in DMSO) or pure DMSO (as vehicle) was added to the sample, vortexed briefly, and incubated for 30 […]
minutes at RT. Subsequently, 0.5 µL MB064 (40x stock in DMSO) was added to the proteome sample, vortexed briefly, and incubated for 10 minutes at RT, after which 0.5 µL FP-Bodipy-FL (40x stock in DMSO) was added, vortexed briefly and incubated for 10 minutes at RT. The final volume was 20 - 20.5 µL (5 - 7.5% DMSO). The reaction was quenched by the addition of 7.5 µL of 4*Laemmli-buffer (final concentrations: 60 mM Tris (pH 6.8), 2% (w/v) SDS, 10% (v/v) glycerol, 1.25% (v/v) β-mercaptoethanol, 0.01% (v/v) bromophenol blue). 10 µL (14 µg protein) of the quenched reaction mixture was resolved on 10% acrylamide SDS-PAGE (180 V, 75 min). Fluorescence was measured using a Biorad ChemiDoc MP system (fluorescence channels Cy2, Cy3, Cy5). Gels were then stained using coomassie staining and imaged for protein loading control. Labeling of the respective proteins via MB064 and FP-BODIPY was visualized in two separate channels. […]
Activity based protein profiling (ABPP)
PBMCs were thawed, washed with 1 x PBS and equal amounts of cells were exposed to DMSO (D2650; Sigma-Aldrich) or MAGL inhibitor PF (PF-06795071) in DMSO for 30 min at room temperature with concentrations ranging from 1 nM to 1000 nM. Cells were washed with 1 x PBS and lysed in ice -cold lysis buffer (ab156035; Abcam), lysates were centrifuged at 14,000 x g for 15 minutes at 4°C and supernatants were collected. For ABPP experiments, cell lysates containing equal amounts of protein were incubated with the appropriate concentration of activity -based probe for 30 min at room temperature. The reaction was quenched for 30 min by adding SDS -PAGE loading buffer (NP0007, Thermo). Samples were then separated by SDS-PAGE and bands were detected ChemiDoc Imager (Bio-Rad Laboratories). Following detection, gels were stained with SimplyBlue™ SafeStain (LC6060, Thermo) for 1 hour with gentle agitation and excess stain was removed by destaining in ddH2O for 1 h with gentle agitation. Gels were imaged and protein bands were quantified using Image Lab software (Bio-Rad Laboratories).

[2] = High throughput kinetic solubility measurement; assay type: physicochemical; conditions: phosphate buffer, pH 6.5, aqueous buffer, kinetic from dmso stock

With O=C(O[C@H](CO)C(F)(F)F)N1CC2(CC(CC3=C4C=CC=[N+]4[B-](F)(F)n4cccc43)C2)C1 [Compound 1] the IC50 (rMAGL) was 0.36 nM, the inhibition at 10 µM (CDK2 (h) (cycA)) was 7.8% and the “labeling selectivity in ABPP (covalent probes)” value (“labeling selectivity in ABPP” for short) [1] was “only selective irreversible labeling of the two MAGL isoforms”. It also gave a solubility kinetic [2] of 19 µg/mL (≈ 41.6 µM).
With O=C(OC(C(F)(F)F)C(F)(F)F)N1CC2(CC(CC3=C4C=CC=[N+]4[B-](F)(F)n4cccc43)C2)C1 [Compound 2] the IC50 (rMAGL) was 0.2 nM, the inhibition at 10 µM (CDK2 (h) (cycA)) was 6.3% and the “labeling selectivity in ABPP” value [1] was “only selective irreversible labeling of the two MAGL isoforms”. For the same molecule, the solubility kinetic [2] was < 3 µg/mL.
With O=C(OC(C(F)(F)F)C(F)(F)F)N1CC2(CC(CC3=C4C=CC(c5ccc[nH]5)=[N+]4[B-](F)(F)n4cccc43)C2)C1 [Compound 2a] the IC50 (rMAGL) was 0.68 nM, the inhibition at 10 µM (CDK2 (h) (cycA)) was -5.8% and the “labeling selectivity in ABPP” value [1] was “only selective irreversible labeling of the two MAGL isoforms”. For the same molecule, the solubility kinetic [2] was < 1 µg/mL.
With O=C1CO[C@H]2CCN(C(=O)N3CC4(CC(CC5=C6C=CC=[N+]6[B-](F)(F)n6cccc65)C4)C3)C[C@H]2N1 [Compound 4] the IC50 (rMAGL) was 2.4 nM, the “loss of potency against rat or cynomolgus monkey orthologs” value (rMAGL; rat or cynomolgus monkey MAGL) was “less than 4 fold” and the “selectivity in competitive ABPP (reversible probes)” value (“selectivity in competitive ABPP” for short) [1] was “no other potential off-target detectable”. For the same molecule, the solubility kinetic [2] was 112 µg/mL (≈ 232 µM).
For O=C1CO[C@H]2CCN(C(=O)N3CC4(CC(CC5=C6C=CC(c7ccc[nH]7)=[N+]6[B-](F)(F)n6cccc65)C4)C3)C[C@H]2N1 [Compound 4a], the IC50 (rMAGL) was 0.47 nM, the inhibition at 10 µM (CDK2 (h) (cycA)) was -8.3% and the “selectivity in competitive ABPP” value [1] was “no other potential off-target detectable”. For the same molecule, the solubility kinetic [2] was < 0.3 µg/mL.
With O=C(N1CC2(CC(CC3=C4C=CC=[N+]4[B-](F)(F)n4cccc43)C2)C1)N1CC2(CC(n3cnc(C4CC4)n3)C2)C1 [Compound 5] the IC50 (rMAGL) was 0.98 nM, the inhibition at 10 µM (CDK2 (h) (cycA)) was 6.5% and the “selectivity in competitive ABPP” value [1] was “no other potential off-target detectable”. For the same molecule, the solubility kinetic [2] was 46 µg/mL (≈ 86.6 µM).
